What was measured:
[1] = Oral administration to rats, plasma concentration and absorption ratio (Example 1, Table 1); type: in vivo; details: rat, SD-strain male rats, 20 mg/kg, suspended in 0.5% methylcellulose
Description: The antiulcer drug 2-[[[3-methyl-4-(2,2,3,3,-tetrafluoropropoxy)-2-pyridyl]methyl]thio]benzimidazole (hereinafter sometimes referred to as Compound A) (400 mg) and lactic acid/glycollic acid copolymer (lactic acid/glycollic acid=50/50, average molecular weight calculated as polystyrene=5400) (3.6 g) were dissolved in dichloromethane (5 ml) to prepare an o/w type emulsion using a homogenizer in an aqueous solution (800 ml) of 0.1% polyvinyl alcohol (PVA). Then, the emulsion was slowly stirred with a conventional propeller stirrer. After dichloromethane vaporized and the microcapsules hardened, the microcapsules were collected by centrifugation and at the same time washed with purified water. The collected microcapsules were freeze-dried for a day to obtain powdery microcapsules.
The drug content in the total amount of the microcapsules was 10.0%, and the entrapment was 100%. The microcapsules were suspended in 0.5% methylcellulose, and orally administered to SD-strain male rats (body weight: 250 g) in a dose of 20 mg/kg. A suspension of the drug alone in 0.5% methylcellulose was also administered for comparison. In both cases, the plasma concentration of the drug and the absorption ratio were determined.

[2] = Solubility of Compound A at the pH in the small intestine (stated in words); type: physicochemical
[3] = Oral administration to rats, plasma concentration and absorption ratio (Example 2, Table 2); type: in vivo, SD-strain male rats; details: rat, 20 mg/kg
Description: From this emulsion, a w/o/w type emulsion was prepared using a homogenizer in 0.5% PVA aqueous solution (1000 ml). Then, the emulsion was slowly stirred with a conventional propeller stirrer for 3 hours. After dichloromethane vaporized while w/o type microcapsules hardened, the microcapsules were centrifuged and collected and at the same time washed with purified water. The collected microcapsules were freeze-dried for a day to obtain powdery microcapsules.
The microcapsules were suspended in 0.5% methylcellulose, and orally administered to SD-strain male rats (body weight: 250 g) in a dose of 20 mg/kg. For comparative purposes, a suspension of the drug alone in 0.5% methylcellulose was also administered. In both cases, the plasma concentration of the drug and the absorption ratio were determined.

[4] = pH no higher than 3; cited from earlier work

Structure (SMILES)	Fa ([1]; in vivo) [%]	Cmax ([1]; plasma, read-out: Cmax (peak blood level)) [ng/mL]	Tmax ([1]; plasma, read-out: Tmax (time required to obtain the peak blood level)) [min]	solubility [2]	Fa ([3]; in vivo) [%]	Cmax ([3]; plasma) [ng/mL]	Tmax ([3]; plasma) [min]	solubility in water [4]
Cc1c(OCC(F)(F)C(F)F)ccnc1CSc1nc2ccccc2[nH]1 [Compound A, 2-[[[3-methyl-4-(2,2,3,3,-tetrafluoropropoxy)-2-pyridyl]methyl]thio]benzimidazole]	5.4	218	15	very low solubility	5.4	218	15	
COc1ccc2c(c1)c(CC(=O)O)c(C)n2C(=O)c1ccc(Cl)cc1 [indomethacin]								not readily soluble
